Measured values: ChEMBL document CHEMBL1153138, “2,4-Diaminopyrimidine MK2 inhibitors. Part II: Structure-based inhibitor optimization” (Bioorg Med Chem Lett, 2010)

Columns and labels:
Set-up in all cases: dose 3 mg/kg, route intravenous
Details in all cases: in vivo
[1] = tested on: Rattus norvegicus; test: Half life in Sprague-Dawley rat at 3 mg/kg, iv; format: ADME, organism-based
[2] = tested on: Rattus norvegicus; test: Terminal Phase volume of distribution at steady state in Sprague-Dawley rat at 3 mg/kg, iv; format: ADME, organism-based
[3] = tested on: Rattus norvegicus; test: AUC in Sprague-Dawley rat at 3 mg/kg, iv; format: ADME, organism-based, Plasma
[4] = tested on: Rattus norvegicus; test: Clearance in Sprague-Dawley rat at 3 mg/kg, iv; format: ADME, organism-based

t1/2 [1]: 5.5 h
Vbeta [2]: 4 L/kg
AUC [3]: 4200 ng·h/mL
CL [4]: 28.3 mL/min/kg
SMILES: NCCCn1cc(-c2cc(-c3cc4ccccc4s3)c3[nH]ncc3c2)c2nc(N)ncc21
